The values below come from patent US5945436A, “Pyridylmethyl nitriles, amides and thioamides useful as fungicides” (Uniroyal Chemical Company, Inc., priority 1997, dated 1999).

For one assay, the system named is Erysiphe graminis. The assay is described as follows: Powdery mildew of barley, systemic root uptake (BMS). As to conditions: 45 ml of 250 mg/l, 8 days after inoculation. The assay is classed as in vivo. In short, it runs like this: (§1)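 Pot soil of barley (BMS) and cucumber (CMS) plants was drenched with 45 ml of a 250 mg/l acetone/Tween 20 aqueous emulsion, with untreated plants as controls. Disease was scored on a rating scale that included intermediate grades.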

The next assay concerns Erysiphe cichoracearum. The assay is described as follows: Powdery mildew of cucumber, systemic root uptake (CMS). The assay is classed as in vivo. Particulars: 45 ml of 250 mg/l, 8 days after inoculation. In outline:
as §1

The subject of a further assay is Uromyces phaseoli. The assay is described as follows: Bean rust fungus eradicant test (URO PHA). Format: in vivo. Particulars: pinto bean, eradicant spray 2 days after inoculation, 1,000 mg/l; for pest or weed control at 1000 µg/mL: Uromyces phaseoli, 216 h, read-out: Percent Reduction of Disease, URO PHA. In outline: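 Seven-day-old pinto bean plants (Phaseolus vulgaris, primary leaf) were inoculated with 20,000 spores/ml, held 24 h at 99% humidity and 21° C., then sprayed two days post-inoculation with acetone/TWEEN 20 emulsions at 1,000 mg/l. After nine days in a 21° C. greenhouse, disease was scored as percent reduction versus unsprayed controls.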

Another assay relates to Erysiphe polygoni. The assay is described as follows: Powdery mildew on pinto bean, foliar application (ERY POL). The assay is classed as in vivo. Particulars: similar procedure as barley (1,000 mg/l); for pest or weed control at 1000 µg/mL: Erysiphe polygoni, read-out: Percent Reduction of Disease, ERY POL. In short, it runs like this:
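Pinto bean plants sprayed with compound emulsion (acetone or inert solvent, TWEEN 20, water) at 1,000 mg/l, or left unsprayed, dried, then inoculated with Erysiphe polygoni spores in a 21° C greenhouse. Disease scored; percent control computed against untreated controls.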

A further assay concerns Pyricularia oryzae. The assay is described as follows: whole plant or invertebrate. Format: in vivo. Particulars: for pest or weed control at 1000 µg/mL: Pyricularia oryzae, in Hordeum vulgare, foliar, 216 h, read-out: Percent Reduction of Disease, PYR ORY, barley, foliar, 1,000 mg/l.
Another assay deals with Septoria nodorum. The assay is described as follows: Fungal growth inhibition, treated disc on agar (SEP NOD). Format: cell-based. As to conditions: disc dipped in 500 mg/l, 29° C.; for inhibition at 500 µg/mL: Parastagonospora nodorum, read-out: Percent Growth Inhibition, SEP NOD.
Another assay deals with Pythium ultimum. The assay is described as follows: Fungal growth inhibition, treated disc on agar (PYT ULT). Format: cell-based. As to conditions: disc dipped in 500 mg/l, 29° C.; for inhibition at 500 µg/mL: Globisporangium ultimum, read-out: Percent Growth Inhibition, PYT ULT.
In a further assay the test system is Scierotinia minor. The assay is described as follows: Fungal growth inhibition, treated disc on agar (SCL MIN). The assay is classed as cell-based. As to conditions: disc dipped in 500 mg/l, 29° C.; for inhibition at 500 µg/mL: read-out: Percent Growth Inhibition, SCL MIN.
For a further assay, the system named is Botrytis cinerea. The assay is described as follows: Fungal growth inhibition, treated disc on agar (BOT CIN). Format: cell-based. As to conditions: disc dipped in 500 mg/l, 29° C.; for inhibition at 500 µg/mL: Botrytis cinerea, read-out: Percent Growth Inhibition, BOT CIN.
Another assay concerns Fusarium oxysporum. The assay is described as follows: Fungal growth inhibition, treated disc on agar (FUS OXY). Particulars: disc dipped in 500 mg/l, 29° C.; for inhibition at 500 µg/mL: Fusarium oxysporum, read-out: Percent Growth Inhibition, FUS OXY. Format: cell-based.
In the next assay the test system is Colletotrichum gossypii. The assay is described as follows: Fungal growth inhibition, treated disc on agar (COL GOS). Format: cell-based. Particulars: disc dipped in 500 mg/l, 29° C.; for inhibition at 500 µg/mL: Colletotrichum gossypii, read-out: Percent Growth Inhibition, COL GOS.

From the text for Botrytis cinerea: (§2) Filter paper discs, each 11 mm. in diameter, were dipped in each of the test solutions. The discs were allowed to air dry to drive off the acetone solvent. A number of untreated discs were used as controls.
(§3) The treated and untreated discs were then placed on agar plates and one of the following fungus species: Septoria nodorum (SEP NOD), Botrytis cinerea (BOT CIN), Fusarium oxysporum (FUS OXY), Pythium ultimum (PYT ULT), Rhizoctonia solani (RHI SOL), Colletotrichum gossypii (COL GOS), and Scierotinia minor (SCL MIN), was added to the center of each disc in the form of a culture plug with the fungus mat in contact with the paper of the test disc. Cercosporidium personatum (CER PER), was added to discs as a spore suspension (20,000 spores/ml) to the disc (two drops of spore suspension per disc), rather than a mycelial culture plug. The plates were then incubated at 29° C. in an oven.
(§4) With the exception of the discs containing Cercosporidium personatum, the discs were evaluated by first measuring the radius from the center of the fungus colony on the treated discs and on the untreated discs. Percent growth inhibition of each of the compounds tested was determined as a function of the difference between the radius of the fungus colony on the treated disc versus the radius of the fungus colony on the untreated disc.
From the text for Pythium ultimum: as §2, §3, §4
From the text for Septoria nodorum: as §2, §3, §4

The inhibition is the change of the read-out against control, counted positive when it falls. For the compound `CCCCC(C#N)(CCc1ccc(OCC)cc1)c1cccnc1` (stereo not drawn) [Compound 35], in the assay with Erysiphe graminis, the “Percent Reduction of Disease, BMS” value was 0%. The “Percent Reduction of Disease, CMS” value in the assay on Erysiphe cichoracearum stood at 0%. Further, in the assay with Uromyces phaseoli, the “Percent Reduction of Disease, URO PHA” value worked out at 90%. Further, the pest or weed control at 1000 µg/mL was 100% with Erysiphe polygoni and 55% with Pyricularia oryzae. Further, the inhibition at 500 µg/mL in the assay with Septoria nodorum is 90%; in the assay on Botrytis cinerea, 91%; in the assay with Colletotrichum gossypii, 97%. In the assay with Pythium ultimum, the “Percent Growth Inhibition, PYT ULT” value is 0%. In addition, the “Percent Growth Inhibition, SCL MIN” value in the assay on Scierotinia minor was determined as 88%. In addition, the “Percent Growth Inhibition, FUS OXY” value in the assay with Fusarium oxysporum turned out to be 30%.
With `CCCCCCC(C#N)(CCc1ccc(OC)cc1)c1cccnc1` (stereo not drawn) [Compound 36], the “Percent Reduction of Disease, BMS” value in the assay on Erysiphe graminis is 0%. The “Percent Reduction of Disease, CMS” value in the assay with Erysiphe cichoracearum came to 0%. Moreover, the pest or weed control at 1000 µg/mL is 100% with Uromyces phaseoli, 100% in the assay with Erysiphe polygoni and 90% with Pyricularia oryzae. The inhibition at 500 µg/mL in the assay with Septoria nodorum turned out to be 96%; in the assay with Pythium ultimum it was 75%; in the assay on Scierotinia minor it was 100%; in the assay on Botrytis cinerea, 45%; with Fusarium oxysporum it was 80%; in the assay on Colletotrichum gossypii it was 0%.
In the case of `COc1ccc(CCC(C#N)(CC2CC2)c2cccnc2)cc1` (stereo not drawn) [Compound 37], the “Percent Reduction of Disease, BMS” value with Erysiphe graminis was determined as 0%. Moreover, in the assay with Erysiphe cichoracearum, the “Percent Reduction of Disease, CMS” value is 0%. Also, the pest or weed control at 1000 µg/mL with Uromyces phaseoli worked out at 92%; in the assay with Erysiphe polygoni, 92%; in the assay on Pyricularia oryzae, 100%. Besides, the inhibition at 500 µg/mL in the assay with Septoria nodorum came to 100%; in the assay on Pythium ultimum it was 9%; in the assay on Scierotinia minor, 100%; in the assay with Botrytis cinerea, 100%; in the assay with Fusarium oxysporum it was 100%; with Colletotrichum gossypii, 100%.
`C#CCC(C#N)(CCc1ccc(OC)cc1)c1cccnc1` (stereo not drawn) [Compound 38]: in the assay with Erysiphe graminis, the “Percent Reduction of Disease, BMS” value was 0%. For the same compound, in the assay on Erysiphe cichoracearum, the “Percent Reduction of Disease, CMS” value is 0%. Moreover, the values for the pest or weed control at 1000 µg/mL in the assay with Uromyces phaseoli, in the assay with Erysiphe polygoni and in the assay with Pyricularia oryzae were 0%, 92% and 17%, respectively. Besides, the inhibition at 500 µg/mL with Septoria nodorum amounted to 100%; in the assay on Pythium ultimum, 100%; in the assay on Scierotinia minor, 46%; in the assay with Botrytis cinerea, 100%; with Fusarium oxysporum it was 100%; in the assay on Colletotrichum gossypii, 100%.
As for `CC(C)CC(C#N)(CCc1ccc(F)cc1)c1cccnc1` (stereo not drawn) [Compound 39], the “Percent Reduction of Disease, BMS” value in the assay with Erysiphe graminis was determined as 0%. Also, the “Percent Reduction of Disease, CMS” value in the assay on Erysiphe cichoracearum is on record as 0%. Moreover, the results for the pest or weed control at 1000 µg/mL with Uromyces phaseoli, in the assay with Erysiphe polygoni and with Pyricularia oryzae were 92%, 92% and 100%, respectively. The inhibition at 500 µg/mL amounted to 8% with Septoria nodorum; 44% with Pythium ultimum; 42% with Scierotinia minor; 57% in the assay on Botrytis cinerea; 30% in the assay with Fusarium oxysporum; 75% in the assay with Colletotrichum gossypii.
With `C=CCC(C#N)(CCc1ccc(OCC)cc1)c1cccnc1` (stereo not drawn) [Compound 40], the “Percent Reduction of Disease, BMS” value in the assay on Erysiphe graminis was 0%. Moreover, the “Percent Reduction of Disease, CMS” value in the assay on Erysiphe cichoracearum was determined as 0%. Besides, the pest or weed control at 1000 µg/mL amounted to 17% in the assay on Uromyces phaseoli, 92% with Erysiphe polygoni and 92% in the assay with Pyricularia oryzae. Further, the inhibition at 500 µg/mL worked out at 100% with Septoria nodorum; 61% in the assay with Pythium ultimum; 100% in the assay with Scierotinia minor; 100% in the assay on Botrytis cinerea; 100% in the assay on Fusarium oxysporum; 100% in the assay with Colletotrichum gossypii.
In the case of `C#CCC(C#N)(CCc1ccc(F)cc1)c1cccnc1` (stereo not drawn) [Compound 41], the “Percent Reduction of Disease, BMS” value in the assay with Erysiphe graminis was found to be 0%. Further, the “Percent Reduction of Disease, CMS” value in the assay with Erysiphe cichoracearum is listed as 0%. The pest or weed control at 1000 µg/mL with Uromyces phaseoli turned out to be 0%; in the assay on Erysiphe polygoni, 100%; in the assay with Pyricularia oryzae, 92%. For the same compound, the inhibition at 500 µg/mL is 63% with Septoria nodorum; 9% in the assay with Pythium ultimum; 48% in the assay with Scierotinia minor; 32% in the assay on Botrytis cinerea; 30% in the assay with Fusarium oxysporum; 100% in the assay with Colletotrichum gossypii.
As for `CCCCC(C#N)(CCc1ccc(OCC)cc1)c1cccnc1.Cl` (stereo not drawn) [Compound 42, α-butyl-4-ethoxy-α-(3-pyridinyl)-benzenebutanenitrile hydrochloride], in the assay with Erysiphe graminis, the “Percent Reduction of Disease, BMS” value was determined as 0%. The “Percent Reduction of Disease, CMS” value in the assay on Erysiphe cichoracearum turned out to be 0%. Further, in the assay with Uromyces phaseoli, the “Percent Reduction of Disease, URO PHA” value came to 33%. Besides, the “Percent Reduction of Disease, ERY POL” value in the assay on Erysiphe polygoni is on record as 100%. Further, the “Percent Reduction of Disease, PYR ORY” value with Pyricularia oryzae (barley, foliar, 1,000 mg/l) worked out at 67%. The “Percent Growth Inhibition, SEP NOD” value in the assay with Septoria nodorum came out at 100%. Besides, the “Percent Growth Inhibition, PYT ULT” value in the assay with Pythium ultimum is on record as 3%. Also, the “Percent Growth Inhibition, SCL MIN” value in the assay on Scierotinia minor was 44%. In the assay on Botrytis cinerea, the “Percent Growth Inhibition, BOT CIN” value stood at 100%. For the same compound, the “Percent Growth Inhibition, FUS OXY” value in the assay with Fusarium oxysporum is 100%. Further, the “Percent Growth Inhibition, COL GOS” value in the assay on Colletotrichum gossypii turned out to be 100%.
As to `CCOc1ccc(CCC(C#N)(CC(C)C)c2cccnc2)cc1` (stereo not drawn) [Compound 43], in the assay with Erysiphe graminis, the “Percent Reduction of Disease, BMS” value came to 0%. Also, the “Percent Reduction of Disease, CMS” value in the assay with Erysiphe cichoracearum is given as 0%. Moreover, the pest or weed control at 1000 µg/mL with Uromyces phaseoli came to 83%; with Erysiphe polygoni, 92%; in the assay on Pyricularia oryzae, 100%. Further, the inhibition at 500 µg/mL was 100% in the assay with Septoria nodorum; 36% in the assay on Pythium ultimum; 100% in the assay on Scierotinia minor; 100% in the assay with Botrytis cinerea; 100% in the assay with Fusarium oxysporum; 94% with Colletotrichum gossypii.
For `CCCCCCC(C#N)(CCc1ccc(OCC)cc1)c1cccnc1` (stereo not drawn) [Compound 44], in the assay with Erysiphe graminis, the “Percent Reduction of Disease, BMS” value came to 0%. Moreover, the “Percent Reduction of Disease, CMS” value in the assay on Erysiphe cichoracearum worked out at 0%. The pest or weed control at 1000 µg/mL stood at 92% in the assay on Uromyces phaseoli, 90% in the assay on Erysiphe polygoni and 17% in the assay with Pyricularia oryzae. The inhibition at 500 µg/mL in the assay with Septoria nodorum turned out to be 100%; with Pythium ultimum, 89%; in the assay with Scierotinia minor, 100%; in the assay on Botrytis cinerea, 43%; with Fusarium oxysporum, 8%; with Colletotrichum gossypii, 100%.
As for `CCCCCCC(C#N)(CCc1ccc(F)cc1)c1cccnc1` (stereo not drawn) [Compound 45], the “Percent Reduction of Disease, BMS” value in the assay on Erysiphe graminis turned out to be 0%. Further, in the assay on Erysiphe cichoracearum, the “Percent Reduction of Disease, CMS” value worked out at 67%. The pest or weed control at 1000 µg/mL in the assay with Uromyces phaseoli was 92%; with Erysiphe polygoni it was 90%; in the assay with Pyricularia oryzae it was 17%. Moreover, the inhibition at 500 µg/mL in the assay on Septoria nodorum was determined as 100%; in the assay on Pythium ultimum, 89%; in the assay with Scierotinia minor, 100%; with Botrytis cinerea, 100%; in the assay with Fusarium oxysporum, 14%; in the assay with Colletotrichum gossypii, 100%.
With `CCCC(C#N)(CCc1ccc(OCC)cc1)c1cccnc1` (stereo not drawn) [Compound 46], in the assay with Erysiphe graminis, the “Percent Reduction of Disease, BMS” value came to 0%. For the same compound, the “Percent Reduction of Disease, CMS” value in the assay with Erysiphe cichoracearum is 0%. The pest or weed control at 1000 µg/mL in the assay on Uromyces phaseoli was found to be 33%; in the assay on Erysiphe polygoni, 90%; in the assay on Pyricularia oryzae it was 0%. For the same compound, the inhibition at 500 µg/mL in the assay with Septoria nodorum is 100%; in the assay on Pythium ultimum it was 59%; in the assay on Scierotinia minor, 100%; in the assay on Botrytis cinerea, 100%; in the assay with Fusarium oxysporum it was 100%; in the assay on Colletotrichum gossypii, 100%.
